pIC50: −log10 of the molar value.
Columns and labels:
HeLa cells = assay: HeLa cell viability (PrestoBlue); format: cell-based; details: Homo sapiens, 48 h
Experimental: (§1) Cell viability was measured using the PrestoBlue cell viability reagent (Invitrogen) according to the manufacturer’s recommendations.
For HeLa cells, 5000 cells/well were seeded in complete medium on 96-wells, black walls plate the day before the treatment. Compounds were dissolved in medium at the indicated concentrations and added to cells. Five technical replicates were performed for each treatment. 48 h after treatment, 8 μL of PrestoBlue was added to each well and the cells were incubated at 37 °C for 15 min. Fluorescence (excitation 560 nm, emission 590 nm, 10 nm bandwidth) was recorded using a FLUOstar Omega Microplate Reader (BMG). […]
as §1
For HeLa cells, 5000 cells/well were seeded in complete medium on 96-wells, black walls plate the day before the treatment. […] Fluorescence (excitation 560 nm, emission 590 nm, 10 nm bandwidth) was recorded using a FLUOstar Omega Microplate Reader (BMG).
For Immortalized Human Total Liver Cell Population (IHTLCP), 1850 cells/well were seeded in complete Prigrow III medium (abm) in 384-wells, black walls plate (Perkin Elmer) the day before the treatment. […] Percent viability of IHTLCP cells was calculated as FLUcmp -FLUbg/ FLUDMSO -FLUbg (n=3).
(§2) THP1 cell viability was measured according to a previously published procedure.9

[1] = system: Immortalized Human Total Liver Cell Population (IHTLCP); assay: IHTLCP cell viability (PrestoBlue); format: cell-based; details: 72 h
Experimental: as §1
For IHTLCP, 1850 cells/well were seeded in complete Prigrow III medium (abm) in 384-wells, black walls plate (PerkinElmer) the day before the treatment. Compounds were titrated 1/2 in DMSO, dissolved in medium, and transferred to the cells to generate the indicated final concentrations (final volume 60 μL/well). 72 h after treatment, 6 μL of PrestoBlue was added per well. Cells were incubated in PrestoBlue for 1 h at 37 °C after which fluorescence (excitation 535 nm, emission 590 nm, 20 nm bandwidth) was measured using a Synergy H4Microplate Reader. Percent viability of IHTLCP cells was calculated as FLUcmp – FLUbg/FLUDMSO – FLUbg (n = 3). […]
a Intrinsic clearance in rat hepatocytes ((μL/min)/10^6 cells).b Intrinsic clearance in human microsomes (μL/min/mg).
Table S3. […]
as §1
For HeLa cells, 5000 cells/well were seeded in complete medium on 96-wells, black walls plate the day before the treatment. […] Fluorescence (excitation 560 nm, emission 590 nm, 10 nm bandwidth) was recorded using a FLUOstar Omega Microplate Reader (BMG). […]
as §2

[2] = system: Tba (thrombin binding aptamer); assay: FRET melting assay, Tba G4 DNA; details: 5 at 2 μM, 27 at 5 μM; G4 DNA 0.2 μM
Experimental: Additional G4 DNA structures were examined in the FRET melting assay to study the selectivity of compound (5) and its methylated analogue (27) toward different G4 structures. Compounds 5 and 27 were tested at 2 and 5 μM, respectively, for their abilities to increase the thermal stability of G4 DNA structures (Figure 6C and Table S1). Overall, this confirms that compound 5 is a much stronger G4 stabilizer, as compared to 27.
Synthetic labeled oligonucleotides for the FRET study were purchased from Eurofins Genomics. Stock solutions were prepared in MQ-water at 100 μM concentration. The sequences used are listed in Supporting Information Table S1. All the oligonucleotides except Pu22 were prefolded in 10 mM lithium cacodylate buffer (pH 7.4), with 10 mM KCl and 90 mM LiCl by heating for 10 min at 95 °C and then cooling in fridge for at least 1 h. […]
The FRET occurs between two dyes (5′-FAM as donor and 3′-TAMRA as acceptor) linked at both extremities of a DNA oligonucleotide. […] This process can be detected by a reduction in the fluorescence emission of the donor. Fluorescence emission of the donor is recovered when the temperature increment triggers the thermal denaturation of the G4 structure. […] The stabilization (ΔTm) is calculated from comparison of Tm of the fluorescently labeled oligonucleotide in the presence or absence of the ligand.

c-MYC Pu22 G4 DNA = assay: 1H NMR titration with c-MYC Pu22 G4 DNA; format: binding, human; details: DNA 90 μM; 298 K
From the text: To study the interactions of compounds 5 and 27 with G4 DNA in more detail, we performed a nuclear magnetic resonance (NMR) titration assay for both compounds with c-MYC Pu22 G4 DNA. In this assay, we monitored chemical shift alterations and the broadening of the well-defined imino protons from the G4 DNA located at 10–12 ppm in the NMR spectrum upon the addition of different compound concentrations. […] Although it is challenging to conclude the details of the binding interactions, the observed impact on the protons in the 3′ quartet for both compounds, especially compound 27, strongly implies the presence of an end-stacking type of interaction.
The G4 DNA stock solutions were prepared by folding 100 μM c-MYC Pu22 in 10 mM potassium phosphate buffer (pH = 7.4) and 35 mM KCl by heating at 95 °C for 10 min and cooling to ambient temperature overnight. 10% D2O was added to the DNA stock solutions, yielding a final DNA concentration of 90 μM. NMR samples were prepared by sequential addition of 5 or 27 from 2 or 10 mM DMSO-d6 stock solutions to 200 μL of the DNA solution which was then transferred to 3 mm NMR tubes. […] All spectra were recorded at 298 K on a Bruker 850 MHz Avance III HD spectrometer equipped with a 5 mm TCI cryoprobe. Excitation sculpting was used in the 1D 1H experiments, and 256 scans were recorded. Processing of spectra was performed in MestreNova 10.0.2.

Row | pIC50 (HeLa cells) | binding by NMR titration (imino protons) (c-MYC Pu22 G4 DNA) | Structure (SMILES) | pIC50 [1] | effect on thermal stability of Tba [2]
1 | 5.96 to 6.06 | bind | Cc1cc(C)c2nc(Nc3nc(C)cc(NCCCN(C)C)n3)nc(C)c2c1 [Compound 5, N4-(3-(Dimethylamino)propyl)-6-methyl-N2-(4,6,8-trimethylquinazolin-2-yl)pyrimidine-2,4-diamine] | 6.19 | Neither compound affected the thermal stability
2 | 4.47 to 4.72 | bind | Cc1cc(C)c2nc(Nc3nc(C)cc(C)n3)nc(C)c2c1 [Compound 27, N-(4,6-Dimethylpyrimidin-2-yl)-4,6,8-trimethylquinazolin-2-amine] | 4.46 | Neither compound affected the thermal stability
